Results taken from patent US20180327806A1, “MULTIPLEX HIGH-[…] OF MICRO-ORGANISM STRAINS, RELATED KITS, D[…] AND SCREENING ASSAYS” (THE BROAD INSTITUTE, INC., priority 2015, published 2018).

Key:
dfrA hypomorph strain = type: cell-based, M. tuberculosis; conditions: drug targeting dfrA
[1] = tested on: PA14 strain with MurA knockdown (hypomorph); assay: Growth of PA14 MurA knockdown (hypomorph) strain with drug; type: cell-based, Pseudomonas aeruginosa
Source text: Engineering hypersusceptible strains (hypomorph strains): Strain PA14 is engineered so that the expression of selected essential genes may be lowered using a ‘weaker’ promoter. […] 30). It is possible to use a promoter library of varying strengths that was developed to drive GFP expression in E. coli (Davis, J. H., A. J. Rubin, and R. T. Sauer, Design, construction and characterization of a set of insulated bacterial promoters. Nucleic Acids Res, 2011. 39(3): p. 1131-41). […] The weakest promoter that provides the lowest tolerable level of the protein that still yields a viable bacterium may be used for each essential gene to create a hypersensitive strain. It is also proposed to construct control strains by knocking out dihydrofolate reductase dhfr (which is the target of trimethoprim), dihydropteroate synthetase dhps (which is the target of sulfamethoxazole), murA (which is the target of fosfomycin) and ostA (which is the OMP target of POL7001 [Srinivas, N., et al., Peptidomimetic antibiotics target outer-membrane biogenesis in Pseudomonas aeruginosa. Science, 2010. 327(5968): p. 1010-3.]). Then, it is possible to measure the MIC for each of these compounds against their respective strains compared to wild-type PA14.
FIG. 5 illustrates the use of variable promoters for generating and selecting hypomorph strains. […]

| Structure (SMILES) | sensitivity of dfrA hypomorph strain to drug (dose response curve) (dfrA hypomorph strain) | sensitivity of MurA knockdown PA14 strain to drug [1] |
| --- | --- | --- |
| CN(Cc1cnc2nc(N)nc(N)c2n1)c1ccc(C(=O)N[C@@H](CCC(=O)O)C(=O)O)cc1 [methotrexate] | hypersensitive |  |
| C[C@@H]1O[C@@H]1P(=O)(O)O [fosfomycin] |  | hypersensitive |
